# Assay results from patent US20160375039A1, “COMPOUNDS FOR THE TREATMENT OF OBESITY AND METHODS OF USE THEREOF” (The Children's Medical Center Corporation, priority 2013, published 2016).
# “Also recorded” adds a separate entry of the source.
# Key:
# [1] = weight loss product rating; cited from earlier work
# [2] = system: 10-week old lean mice on chow diet; experiment: Withaferin A i.p. to lean mice on chow diet for three weeks; format: in vivo, mouse; details: 2 mg/kg i.p.
# Protocol: Withaferin A was administered to 10-week old lean mice on chow diet at 2 mg/kg for three weeks by i.p. injections.
# [3] = system: lean mice; experiment: Leptin sensitivity: overnight food intake after acute Withaferin A and leptin injection, lean mice; format: in vivo, mouse
# Protocol: (§1) Therefore is it possible that Withaferin A exerts the anti-obesity effects through increasing the leptin sensitivity in the brains of the HFD-fed obese mice. To test this hypothesis, leptin was administered to Withaferin A or vehicle treated HFD-fed obese animals. To avoid any possible leptin sensitizing effect of weight loss or decreased food intake created by Withaferin A administration, leptin injections were carried out upon acute Withaferin A treatment. Lean and HFD-fed obese mice were divided into four groups: 1) DMSO+saline, 2) DMSO+leptin, 3) Withaferin A+saline, and 4) Withaferin A+leptin (n=6 per group). The mice were injected (i.p.) with 1.5 mg/kg Withaferin A or vehicle (DMSO) one hour before dark cycle (day zero). 24 hours later, the second and final injection of DMSO or Withaferin A was administered. 30 minutes prior to dark cycle, mice received a single i.p. injection of leptin (1 mg/kg for HFD mice, dissolved in saline; 5 mg/kg for lean mice), or saline. Over night food intakes were recorded (HFD, FIG. 4A; Chow FIG. 4B). […] In addition, HFD-fed obese mice were resistant to the food intake reducing effect of leptin unless they received Withaferin A (FIG. 4A).
# [4] = system: HFD-fed obese mice; experiment: Leptin sensitivity: overnight food intake after acute Withaferin A and leptin injection, HFD-fed obese mice; format: in vivo, mouse
# Protocol: as §1
# [5] = system: HFD-fed obese C57Bl/6J mice; experiment: Withaferin A daily i.p. to HFD-fed obese mice for three weeks: body weight, food intake, fasting blood glucose; format: in vivo, mouse
# Protocol: To investigate whether Withaferin A can act as an anti-obesity drug by increasing leptin sensitivity and reducing appetite, C57Bl/6J mice were placed on a high fat diet (HFD; Research Diets, D12451, 45 kcal % fat) feeding for 16 weeks. After establishment of obesity and leptin resistance, mice were administered Withaferin A (at 2 mg/kg, in 25 μl DMSO, once per day) and vehicle (DMSO, 25 n1) with intraperitoneal (i.p.) injection. The animals had free access to food and water unless otherwise stated. In all experiments, three days prior to drug administration, the animals went through an acclimation period where they were given DMSO (25 n1) to reduce the effect of stress created by i.p. injection.
# Following three days acclimation, mice were administered Withaferin A daily i.p. injections at 2 mg/kg for three weeks in 25 μl of DMSO as vehicle, whereas the control group received the same volume of DMSO. […] At day 21 of the experiment, the 6-hour fasting blood glucose of mice was measured.
# [6] = system: HFD-fed mice; experiment: Body composition by Dual-Emission X-ray Absorptiometry (DEXA); format: in vivo, mouse; details: i.p. 2 mg/kg, two weeks
# Protocol: To analyze the change in body composition during Withaferin A treatment (i.p. 2 mg/kg), lean mass and fat mass of mice with Dual-Emission X-ray Absorptiometry (DEXA) were measured.
# [7] = system: leptin receptor deficient (db/db) mice; experiment: Withaferin A to leptin receptor deficient (db/db) mouse model of obesity; format: in vivo; details: 2 mg/kg once a day
# Protocol: To explore whether Withaferin A's effect is leptin dependent, Withaferin A (2 mg/kg, once a day, in 2Sμ1 DMSO) was administered to leptin receptor deficient (db/db) mouse model of obesity.
# [8] = system: HFD-fed obese mice; experiment: Glucose Tolerance Test (GTT); format: in vivo, mouse; details: 2 mg/kg i.p., one week, D-glucose 1 g/kg i.p., vs vehicle
# Protocol: (§2) In order to analyze the effect of Withaferin A on glucose homeostasis, we performed Glucose Tolerance Test (GTT) and Insulin Tolerance Test (ITT) after chronic i.p. Withaferin A treatment (2 mg/kg). For GTT, mice were fasted overnight following one week of Withaferin A treatment and received an i.p. injection of D-glucose (1 g/kg) in the morning. For ITT, after 16 days of Withaferin A treatment, mice were fasted for 6 hours (from 8 a.m. to 2 p.m.) and recombinant human insulin (1 IU/kg from Eli Lilly) was injected intraperitoneally. In both procedures, blood glucose was measured from tail vein blood at 0, 15, 30, 60, 90 and 120 minutes after injection.
# [9] = system: HFD-fed obese mice; experiment: Insulin Tolerance Test (ITT); format: in vivo, mouse; details: 2 mg/kg i.p., day 16, insulin 1 IU/kg i.p.
# Protocol: as §2
compound,measurement,setting,value
[Cr] [Chromium],Safety,[1],Likely safe
CC1=C(CO)C(=O)O[C@@H]([C@@H](C)[C@H]2CC[C@H]3[C@@H]4C[C@H]5O[C@]56[C@@H](O)C=CC(=O)[C@]6(C)[C@H]4CC[C@]23C)C1 [Withaferin A],blood glucose levels,[2]; after 3 weeks of treatment,not altered
same,body weight,[2]; three weeks,failed to induce bodyweight loss
same,food intake,[2]; three weeks,failed to induce bodyweight loss or suppress food intake
same,decrease in food intake upon leptin injection,"[3]; lean mice, Withaferin A 1.5 mg/kg i.p. + leptin 5 mg/kg i.p., compared to vehicle treated non-leptin group",approximately 50%
same,anorectic action of leptin,"[3]; lean mice, Withaferin A 1.5 mg/kg i.p. before leptin 5 mg/kg",significantly potentiated
same,overnight food intake,"[3]; lean mice, Withaferin A 1.5 mg/kg i.p. two injections, without leptin",did not change
same,anorectic action of leptin,"[4]; HFD mice, Withaferin A 1.5 mg/kg i.p. before leptin 1 mg/kg",significantly potentiated
same,decrease in food intake upon leptin injection,"[4]; HFD-fed obese mice, Withaferin A 1.5 mg/kg i.p. + leptin 1 mg/kg i.p., compared to vehicle treated non-leptin group",75%
same,overnight food intake,"[4]; HFD-fed obese mice, Withaferin A 1.5 mg/kg i.p. alone, no exogenous leptin",decreased the food intake
same,6-hour fasting blood glucose,"[5]; 2 mg/kg i.p. daily, day 21, 2 mg/kg",decreases blood glucose; also recorded: robust decrease
same,food intake,"[5]; 2 mg/kg i.p. daily, three days average within first week",significantly decreased
same,body weight,"[5]; 2 mg/kg i.p. once per day, three weeks, vs DMSO vehicle",significantly decreased
same,fat percentage,[6],decreased significantly
same,lean mass,[6],did not change
same,body weight,[7],continued to increase similar to the vehicle treated group
same,food intake,[7],did not show a decrease
same,blood glucose levels,[7]; end of 3-week treatment,tendency to decrease but did not reach statistically significant levels
same,glucose homeostasis (AUC of GTT),[8],significantly improved
same,insulin sensitivity (ITT),[9],improved insulin sensitivity
Conjugated linoleic acid,Effectiveness,[1],Possibly
same,Safety,[1],Possibly safe
"leptin: peptide hormone, afferent signal in a negative feedback loop regulating food intake and body weight",overnight food intake,"[3]; vehicle treated lean mice, leptin 5 mg/kg single i.p. injection",suppressed food intake
same,food intake reducing effect of leptin,"[4]; HFD-fed obese mice without Withaferin A, leptin 1 mg/kg single i.p. injection",resistant
